Consider twelve molecules from patent publication US20220389007A1, “INHIBITORS OF HUMAN IMMUNODEFICIENCY VIRUS REPLICATION” (VIIV HEALTHCARE UK (No. 5) LIMITED, priority 2019, published 2022).

By EC50 is commonly meant the concentration needed to bring the measured effect to its halfway point. By CC50 is commonly meant the concentration giving 50% cytotoxicity. High values mean lower toxicity to the cells, low ones greater toxicity to the cells.

The subject of data set [1] is recombinant NL4-3 virus. Briefly: HIV cell culture assay (antiviral activity, luciferase readout). It counts as cell-based. To be noted: Human immunodeficiency virus 1, NL43, MT2, MT-2 cells infected for 4-5 days with recombinant NL4-3 virus carrying Renilla luciferase. The procedure, abridged: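 MT-2 cells infected for 4-5 days with NL4-3 reference virus carrying Renilla luciferase in place of part of nef, in presence of serial compound dilutions. Luciferase read with live-cell substrate; EC50 from median effect equation fit.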

Data set [2] is described as follows: Compound cytotoxicity, XTT-based colorimetric assay. It is filed as cell-based. To be noted: human; uninfected MT2 cells, day 4, XTT assay. The procedure, abridged:
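Run under the antiviral-assay protocol but without virus. Viability was read on day 4 and CC50 values were derived from the readout.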
A general note: Formazan colour is commonly taken as a measure of viable cells.

As to `Cc1nccnc1-c1ccc2c(=O)n(-c3ccc(Cl)c4c(NS(C)(=O)=O)nn(C)c34)c([C@H](Cc3cc(F)cc(F)c3)NC(=O)Cn3nc(C(F)F)c4c3C(F)(F)[C@@H]3C[C@H]43)nc2n1` (atropisomer, axis not shown; (P)) [Example 7, N-((S)-1-((3P)-3-(4-chloro-1-methyl-3-(methylsulfonamido)-1H-indazol-7-yl)-7-(3-methylpyrazin-2-yl)-4-oxo-3,4-dihydropyrido[2,3-d]pyrimidin-2-yl)-2-(3,5-difluorophenyl)ethyl)-2-((3bS,4aR)-3-(difluoromethyl)-5,5-difluoro-3b,4,4a,5-tetrahydro-1H-cyclopropa[3,4]cyclopenta[1,2-c]pyrazol-1-yl)acetamide], in data set [1], the EC50 turned out to be 20 pM. This molecule also returned a CC50 at 4 day in data set [2] of more than 100000 pM.

On to `Cn1nc(NS(C)(=O)=O)c2c(Cl)ccc(-n3c([C@H](Cc4cc(F)cc(F)c4)NC(=O)Cn4nc(C(F)F)c5c4C(F)(F)[C@@H]4C[C@H]54)nc4nc(-c5ccc(OC(F)(F)F)cc5)ccc4c3=O)c21` (atropisomer, axis not shown; (P)) [Example 26, N-((S)-1-((3P)-3-(4-chloro-1-methyl-3-(methylsulfonamido)-1H-indazol-7-yl)-4-oxo-7-(4-(trifluoromethoxy)phenyl)-3,4-dihydropyrido[2,3-d]pyrimidin-2-yl)-2-(3,5-difluorophenyl)ethyl)-2-((3bS,4aR)-3-(difluoromethyl)-5,5-difluoro-3b,4,4a,5-tetrahydro-1H-cyclopropa[3,4]cyclopenta[1,2-c]pyrazol-1-yl)acetamide], for which the 50% effective concentration (EC50) in data set [1] was 510 pM. In data set [2], the CC50 at 4 day was more than 100000 pM.

For the molecule `Cn1nc(NS(C)(=O)=O)c2c(Cl)ccc(-n3c([C@H](Cc4cc(F)cc(F)c4)NC(=O)Cn4nc(C(F)F)c5c4C(F)(F)[C@@H]4C[C@H]54)nc4nc(-c5nccc(C(F)(F)F)n5)ccc4c3=O)c21` (atropisomer, axis not shown; (P)) [Example 5, N-((S)-1-((3P)-3-(4-chloro-1-methyl-3-(methylsulfonamido)-1H-indazol-7-yl)-4-oxo-7-(4-(trifluoromethyl)pyrimidin-2-yl)-3,4-dihydropyrido[2,3-d]pyrimidin-2-yl)-2-(3,5-difluorophenyl)ethyl)-2-((3bS,4aR)-3-(difluoromethyl)-5,5-difluoro-3b,4,4a,5-tetrahydro-1H-cyclopropa[3,4]cyclopenta[1,2-c]pyrazol-1-yl)acetamide], the EC50 in data set [1] was determined as 21 pM. In addition, the 50% cytotoxic concentration (CC50) at 4 day in data set [2] was more than 100000 pM.

For the molecule `Cc1cc(C)nc(-c2ccc3c(=O)n(-c4ccc(Cl)c5c(NS(C)(=O)=O)nn(C)c45)c([C@H](Cc4cc(F)cc(F)c4)NC(=O)Cn4nc(C(F)F)c5c4C(F)(F)[C@@H]4C[C@H]54)nc3n2)n1` (atropisomer, axis not shown; (P)) [Example 11, N-((S)-1-((3P)-3-(4-chloro-1-methyl-3-(methylsulfonamido)-1H-indazol-7-yl)-7-(4,6-dimethylpyrimidin-2-yl)-4-oxo-3,4-dihydropyrido[2,3-d]pyrimidin-2-yl)-2-(3,5-difluorophenyl)ethyl)-2-((3bS,4aR)-3-(difluoromethyl)-5,5-difluoro-3b,4,4a,5-tetrahydro-1H-cyclopropa[3,4]cyclopenta[1,2-c]pyrazol-1-yl)acetamide], the EC50 in data set [1] was 36 pM. The molecule also displayed a CC50 at 4 day in data set [2] of more than 100000 pM.

As to `COc1ccnc(-c2ccc3c(=O)n(-c4ccc(Cl)c5c(NS(C)(=O)=O)nn(C)c45)c([C@H](Cc4cc(F)cc(F)c4)NC(=O)Cn4nc(C(F)F)c5c4C(F)(F)[C@@H]4C[C@H]54)nc3n2)n1` (atropisomer, axis not shown; (P)) [Example 56, N-((S)-1-((3P)-3-(4-chloro-1-methyl-3-(methylsulfonamido)-1H-indazol-7-yl)-7-(4-methoxypyrimidin-2-yl)-4-oxo-3,4-dihydropyrido[2,3-d]pyrimidin-2-yl)-2-(3,5-difluorophenyl)ethyl)-2-((3bS,4aR)-3-(difluoromethyl)-5,5-difluoro-3b,4,4a,5-tetrahydro-1H-cyclopropa[3,4]cyclopenta[1,2-c]pyrazol-1-yl)acetamide], the EC50 in data set [1] is 51 pM. The molecule further showed a CC50 at 4 day in data set [2] of more than 100000 pM.

Regarding `COc1cc(-c2ccc3c(=O)n(-c4ccc(Cl)c5c(NS(C)(=O)=O)nn(C)c45)c([C@H](Cc4cc(F)cc(F)c4)NC(=O)Cn4nc(C(F)F)c5c4C(F)(F)[C@@H]4C[C@H]54)nc3n2)ccn1` (atropisomer, axis not shown; (P)) [Example 59, N-((S)-1-((3P)-3-(4-chloro-1-methyl-3-(methylsulfonamido)-1H-indazol-7-yl)-7-(2-methoxypyridin-4-yl)-4-oxo-3,4-dihydropyrido[2,3-d]pyrimidin-2-yl)-2-(3,5-difluorophenyl)ethyl)-2-((3bS,4aR)-3-(difluoromethyl)-5,5-difluoro-3b,4,4a,5-tetrahydro-1H-cyclopropa[3,4]cyclopenta[1,2-c]pyrazol-1-yl)acetamide], the EC50 in data set [1] came out at 50 pM. This molecule yielded a CC50 at 4 day in data set [2] of more than 100000 pM.

On to `Cn1nc(NS(C)(=O)=O)c2c(Cl)ccc(-n3c([C@H](Cc4cc(F)cc(F)c4)NC(=O)Cn4nc(C(F)F)c5c4C(F)(F)[C@@H]4C[C@H]54)nc4nc(-c5ccn(CC(F)(F)F)n5)ccc4c3=O)c21` (atropisomer, axis not shown; (P)) [Example 73, N-((S)-1-((3P)-3-(4-chloro-1-methyl-3-(methylsulfonamido)-1H-indazol-7-yl)-4-oxo-7-(1-(2,2,2-trifluoroethyl)-1H-pyrazol-3-yl)-3,4-dihydropyrido[2,3-d]pyrimidin-2-yl)-2-(3,5-difluorophenyl)ethyl)-2-((3bS,4aR)-3-(difluoromethyl)-5,5-difluoro-3b,4,4a,5-tetrahydro-1H-cyclopropa[3,4]cyclopenta[1,2-c]pyrazol-1-yl)acetamide], for which the EC50 in data set [1] came to 29 pM. The molecule also came in with a CC50 at 4 day in data set [2] of more than 100000 pM.

As to `Cn1nc(NS(C)(=O)=O)c2c(Cl)ccc(-n3c([C@H](Cc4cc(F)cc(F)c4)NC(=O)Cn4nc(C(F)F)c5c4C(F)(F)[C@@H]4C[C@H]54)nc4nc(-c5ccc6ocnc6c5)ccc4c3=O)c21` (atropisomer, axis not shown; (P)) [Example 81, N-((S)-1-(7-(benzo[d]oxazol-5-yl)-(3P)-3-(4-chloro-1-methyl-3-(methylsulfonamido)-1H-indazol-7-yl)-4-oxo-3,4-dihydropyrido[2,3-d]pyrimidin-2-yl)-2-(3,5-difluorophenyl)ethyl)-2-((3bS,4aR)-3-(difluoromethyl)-5,5-difluoro-3b,4,4a,5-tetrahydro-1H-cyclopropa[3,4]cyclopenta[1,2-c]pyrazol-1-yl)acetamide], the EC50 in data set [1] worked out at 82 pM. This molecule also displayed a CC50 at 4 day in data set [2] of more than 100000 pM.

Regarding `Cn1nc(NS(C)(=O)=O)c2c(Cl)ccc(-n3c([C@H](Cc4cc(F)cc(F)c4)NC(=O)Cn4nc(C(F)F)c5c4C(F)(F)[C@@H]4C[C@H]54)nc4nc(-c5cncnc5)ccc4c3=O)c21` (atropisomer, axis not shown; (P)) [Example 55, N-((S)-1-((3P)-3-(4-chloro-1-methyl-3-(methylsulfonamido)-1H-indazol-7-yl)-4-oxo-7-(pyrimidin-5-yl)-3,4-dihydropyrido[2,3-d]pyrimidin-2-yl)-2-(3,5-difluorophenyl)ethyl)-2-((3bS,4aR)-3-(difluoromethyl)-5,5-difluoro-3b,4,4a,5-tetrahydro-1H-cyclopropa[3,4]cyclopenta[1,2-c]pyrazol-1-yl)acetamide], in data set [1], the EC50 worked out at 90 pM. Also, in data set [2], the CC50 at 4 day was more than 100000 pM.

Take `Cn1nc(NS(C)(=O)=O)c2c(Cl)ccc(-n3c([C@H](Cc4cc(F)cc(F)c4)NC(=O)Cn4nc(C(F)F)c5c4C(F)(F)[C@@H]4C[C@H]54)nc4nc(-c5cnccn5)ccc4c3=O)c21` (atropisomer, axis not shown; (P)) [Example 8, N-((S)-1-((3P)-3-(4-chloro-1-methyl-3-(methylsulfonamido)-1H-indazol-7-yl)-4-oxo-7-(pyrazin-2-yl)-3,4-dihydropyrido[2,3-d]pyrimidin-2-yl)-2-(3,5-difluorophenyl)ethyl)-2-((3bS,4aR)-3-(difluoromethyl)-5,5-difluoro-3b,4,4a,5-tetrahydro-1H-cyclopropa[3,4]cyclopenta[1,2-c]pyrazol-1-yl)acetamide]: the EC50 in data set [1] amounted to 19 pM. In addition, in data set [2], the CC50 at 4 day is more than 100000 pM.

As to `Cn1nc(NS(C)(=O)=O)c2c(Cl)ccc(-n3c([C@H](Cc4cc(F)cc(F)c4)NC(=O)Cn4nc(C(F)F)c5c4C(F)(F)[C@@H]4C[C@H]54)nc4nc(-c5cnc(C(C)(F)F)s5)ccc4c3=O)c21` (atropisomer, axis not shown; (P)) [Example 99, N-((S)-1-((3P)-3-(4-chloro-1-methyl-3-(methylsulfonamido)-1H-indazol-7-yl)-7-(2-(1,1-difluoroethyl)thiazol-5-yl)-4-oxo-3,4-dihydropyrido[2,3-d]pyrimidin-2-yl)-2-(3,5-difluorophenyl)ethyl)-2-((3bS,4aR)-3-(difluoromethyl)-5,5-difluoro-3b,4,4a,5-tetrahydro-1H-cyclopropa[3,4]cyclopenta[1,2-c]pyrazol-1-yl)acetamide], the EC50 in data set [1] came out at 62 pM. Moreover, in data set [2], the CC50 at 4 day is more than 100000 pM.

As to `Cc1cc(-c2ccc3c(=O)n(-c4ccc(Cl)c5c(NS(C)(=O)=O)nn(C)c45)c([C@H](Cc4cc(F)cc(F)c4)NC(=O)Cn4nc(C(F)F)c5c4C(F)(F)[C@@H]4C[C@H]54)nc3n2)n[nH]1` (atropisomer, axis not shown; (P)) [Example 98, N-((S)-1-((3P)-3-(4-chloro-1-methyl-3-(methylsulfonamido)-1H-indazol-7-yl)-7-(5-methyl-1H-pyrazol-3-yl)-4-oxo-3,4-dihydropyrido[2,3-d]pyrimidin-2-yl)-2-(3,5-difluorophenyl)ethyl)-2-((3bS,4aR)-3-(difluoromethyl)-5,5-difluoro-3b,4,4a,5-tetrahydro-1H-cyclopropa[3,4]cyclopenta[1,2-c]pyrazol-1-yl)acetamide], in data set [1], the 50% effective concentration (EC50) is 200 pM. The CC50 at 4 day in data set [2] is more than 100000 pM.
